The conditions of data set [1]: doses as high as 800 times the recommended human dose; cited from earlier work.
For data set [2] the following is noted: cited from earlier work.
For data set [3] the following is noted: more than 3,000 patients (adults, elderly, children); cited from earlier work.
The conditions of data set [4]: CD-1 mice; TA1 0.3, 0.6 or 1.2 mg/kg/dose i.p. with Fluvirin.
The nature of data set [5]: Safety and tolerability observations in ferrets. The format is in vivo. To be noted: TA1 0.285 or 0.570 mg/kg/dose s.c. As to the method: The vaccine (either Agrippal influPozzi seasonal vaccine, non-adjuvanted, or Fluad, MF-59 adjuvanted) was administered via intramuscular injection to the right leg at a full human dose of 0.5 mL. TA1 (0.285 or 0.570 mg/kg/dose) was administered by the subcutaneous route at a dose volume that, using a scaling factor for ferret/human dosing, corresponding to approximate human doses of […]. Animals were observed twice daily for mortality, general health, and both local and systemic signs of toxicity and illness as well as behavior under the responsibility of a professional veterinarian. Body weights were recorded prior to dosing only.

We go through one substance from US8716012B2, “Alpha thymosin peptides as vaccine enhancers” (priority 2009, dated 2014).

In the case of “Ac-SDAAVDTSSEITTKDLKEKKEVVEEAEN-OH [TA1]”, the “adverse clinical signs in animal studies” value in data set [1] was “no evidence of adverse clinical signs”. Also, the Peak plasma levels entry in data set [2] (after injection of 3.2 mg of TA1 (about 40 μg/kg)) is on record as “approximately 100 ng/ml”. Also, in data set [2] (in vivo), the “half-life of TA1 in the circulation” value was “about 2 hours”. The plasma half-life entry in data set [2] (subcutaneously injected TA1) is “about two”. Besides, in data set [3], the “drug-related side effects in clinical studies” value is “virtually no drug-related side effects”. In data set [4], the “clinical/cageside observations or body weight effects” value is “no test article-related clinical/cageside observations or body weight effects” and the survival result is reported as “All animals survived until scheduled termination”. Besides, in data set [5], the cage-side observations result is given as “no cage-side observations were noted”; the safety and tolerability result was “safe and well-tolerated”.
